The values that follow come from ChEMBL document CHEMBL1149432, “Evaluation of hydroxyimine as cytochrome P450-selective prodrug structure” (J Med Chem, 2006).

≈ marks a conversion by molar mass, not a printed value.

The nature of data set [1]: Aqueous solubility at pH 7.4.
The nature of data set [2]: Aqueous solubility at pH 5.0.
The nature of data set [3]: Metabolic stability by incubation with rat liver microsomes treated with Phenobarbital. Type of data set: ADME, Microsome. On the technique in general: Liver microsomes are a subcellular fraction often used to study metabolism.
Data set [4] in a line: Chemical stability at pH 1.0. Type of data set: physicochemical. To be noted: buffer.
The nature of data set [5]: Chemical stability at pH 5.0. To be noted: buffer. Type of data set: physicochemical.
Data set [6] in a line: Chemical stability at pH 7.4. Type of data set: physicochemical. To be noted: buffer.
Data set [7] can be described thus: Chemical stability at pH 9.0. Type of data set: physicochemical. To be noted: buffer.
Data set [8] in a line: Chemical stability in 80% human serum (pH 7.4). Type of data set: physicochemical.
A short description of data set [9]: Metabolic stability by incubation with rat liver microsomes. Type of data set: ADME, Microsome.
Data set [10] in a line: Metabolic stability by incubation with rat liver microsomes treated with Dexamethasone. Type of data set: ADME, Microsome.
A short description of data set [11]: Metabolic stability by incubation with rat liver microsomes treated with 3-methylcholanthrene. Type of data set: ADME, Microsome. To be noted: 3-methylcholanthrene-treated.
Data set [12] can be described thus: Metabolic stability by incubation with human liver microsomes. Type of data set: ADME, Microsome.
A short description of data set [13]: Distribution coefficient at pH 5.0, log D. To be noted: octanol/water.
The nature of data set [14]: Distribution coefficient at pH 7.4, log D. To be noted: octanol/water.
Data set [15] is described as follows: Chemical stability at pH 3.0. Type of data set: physicochemical. The following applies: buffer.
Data set [16] deals with T1, CYP2B6 (Homo sapiens, UniProt P20813).
T1 sequence (P20813 whole entry): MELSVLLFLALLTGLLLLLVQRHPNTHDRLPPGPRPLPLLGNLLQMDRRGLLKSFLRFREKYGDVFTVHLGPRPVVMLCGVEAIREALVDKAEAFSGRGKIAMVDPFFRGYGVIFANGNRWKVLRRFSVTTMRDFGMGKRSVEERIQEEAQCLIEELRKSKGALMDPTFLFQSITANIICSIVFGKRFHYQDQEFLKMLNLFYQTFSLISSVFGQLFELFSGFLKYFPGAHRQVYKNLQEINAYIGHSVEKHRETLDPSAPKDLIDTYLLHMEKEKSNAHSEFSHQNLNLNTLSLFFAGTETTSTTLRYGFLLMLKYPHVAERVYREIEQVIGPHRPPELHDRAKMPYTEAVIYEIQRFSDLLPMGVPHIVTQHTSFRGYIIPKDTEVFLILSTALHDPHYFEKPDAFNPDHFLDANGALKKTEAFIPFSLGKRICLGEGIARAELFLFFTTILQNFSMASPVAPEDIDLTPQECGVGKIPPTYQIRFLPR
The data set is described as follows: Binding constant for compound binding to CYP2B6. Type of data set: ADME.

A short description of data set [17]: Half life in rat urine at 37 °C. The following applies: in vitro.

`CC(C(=O)O)c1cccc(/C(=N\O)c2ccccc2)c1` (stereo not given): the values for the solubility in data set [1] (buffer) and in data set [2] were 116000 µg/mL (≈ 431000 µM) and 1800 µg/mL (≈ 6680 µM), respectively. For the same compound, the half-life (as a rule, the time needed for the level to fall by half in the phase considered) in data set [3] was found to be 84 h; in data set [4] it was 6 h; in data set [8] it was 796 h; in data set [9], 167 h; in data set [10], 72 h; in data set [11], 100 h. The same compound had a half-life in [12] of 83.6 h. Moreover, the T1/2 result in data set [5], in data set [6] and in [7] was “Not Active” in each case.
`COc1ccc2cc(CC/C(C)=N/O)ccc2c1`: the solubility (in general, how much of the substance goes into solution per volume) in data set [1] (buffer) amounted to 2 µg/mL (≈ 8.22 µM); in [2], 3 µg/mL (≈ 12.3 µM). The half-life in data set [3] was 0.467 h; in [4], 0.1 h; in data set [15] it was 0.183 h; in data set [5], 16.3 h; in data set [6] it was 720 h; in data set [8] it was 591 h. The half-life in data set [9] is 0.967 h; in data set [10], 0.767 h; in data set [11] it was 0.0333 h; in data set [12] it was 0.85 h; in data set [17], 69 h. In addition, the logD in data set [13] and in [14] was 3.6 each time. Moreover, the T1/2 entry in data set [7] is on record as “Not Active”. The Michaelis-Menten constant (Km) (usually the concentration of substrate that gives half-maximal velocity) in data set [16] is 70 µM.
For `CC(C(=O)O)c1cccc(C(=O)c2ccccc2)c1` (stereo not given) [KETOPROFEN], the results for the logD in data set [13] and in data set [14] were 2.1 and 0.008, respectively.
With `COc1ccc2cc(CCC(C)=O)ccc2c1` [NABUMETONE], the solubility in [1] (aqueous) is 4.3 µg/mL (≈ 18.8 µM); in data set [2] it was 6.4 µg/mL (≈ 28 µM). In addition, the figures for the logD in data set [13] and in data set [14] were 3.2 and 3.3, respectively.
